Assay results from the NIST ThermoML archive (doi:10.1016/j.jct.2015.12.017).

Test: molar heat capacity at constant pressure
Conditions: 101.33 kPa, Crystal 4, Vacuum adiabatic calorimetry

O=P([O-])([O-])[O-].[Co+2].[Cs+] [cesium cobalt(II) phosphate]
Conditions | molar heat capacity at constant pressure [J/K/mol]
5 K | 1.355
6 K | 2.328
6.05 K | 2.228
6.49 K | 2.594
6.93 K | 2.96
7 K | 2.893
7.36 K | 3.11
7.78 K | 3.317
8 K | 3.492
8.19 K | 3.633
8.62 K | 4.041
9 K | 4.091
9.08 K | 4.232
9.58 K | 4.457
10 K | 4.689
10.1 K | 4.822
10.63 K | 5.13
11.16 K | 5.471
11.67 K | 5.737
12.16 K | 5.97
13 K | 6.635
14.27 K | 7.807
15 K | 8.29
15.59 K | 8.921
16.94 K | 10.37
18.33 K | 11.79
19.77 K | 13.05
20 K | 13.44
20.92 K | 14.28
22.76 K | 16.17
24.48 K | 17.93
25 K | 18.57
26.27 K | 19.85
28.12 K | 21.62
30 K | 23.49
30.03 K | 23.55
32 K | 25.54
34.02 K | 27.66
35 K | 28.29
36.12 K | 29.27
37.97 K | 30.99
40 K | 33.01
40.47 K | 33.46
42.73 K | 35.36
45 K | 37.42
45.02 K | 37.41
47.34 K | 39.6
49.71 K | 41.16
50 K | 41.41
52.12 K | 42.9
54.56 K | 44.8
57.05 K | 46.5
59.55 K | 48
60 K | 48.39
62.07 K | 49.7
64.59 K | 51.3
67.13 K | 53
69.7 K | 54.4
70 K | 54.75
72.02 K | 56.1
74.09 K | 57.4
76.18 K | 58.59
78.27 K | 59.6
80 K | 60.56
80.36 K | 60.71
80.84 K | 60.8
82.45 K | 61.91
82.83 K | 62.06
84.54 K | 62.83
85.25 K | 63.18
86.65 K | 64.17
87.47 K | 64.52
89.36 K | 65.58
89.69 K | 65.7
90 K | 65.75
91.92 K | 66.67
94.14 K | 67.78
96.37 K | 69.09
98.6 K | 70.17
100 K | 70.96
100.83 K | 71.3
103.07 K | 72.37
105.3 K | 73.45
107.54 K | 74.66
109.78 K | 75.44
110 K | 75.59
111.8 K | 76.31
114.54 K | 77.64
116.74 K | 78.51
118.98 K | 79.46
120 K | 79.79
121.23 K | 80.28
123.47 K | 81.37
125.71 K | 82.23
127.95 K | 83.09
130 K | 83.89
130.19 K | 83.89
132.43 K | 84.89
134.67 K | 85.72
136.91 K | 86.55
139.14 K | 87.39
140 K | 87.97
141.38 K | 88.3
143.49 K | 89.3
145.85 K | 90.21
148.08 K | 91.21
150 K | 91.96
150.3 K | 91.79
151.78 K | 92.54
152.91 K | 93.04
153.96 K | 93.62
155.41 K | 94.12
157.59 K | 94.87
159.03 K | 95.37
160 K | 95.78
161.93 K | 96.28
163.35 K | 96.95
164.07 K | 97.28
165.61 K | 97.86
166.94 K | 98.53
167.88 K | 98.78
170 K | 99.36
170.03 K | 99.61
172.23 K | 100.19
174.44 K | 100.85
176.64 K | 101.6
178.83 K | 102.35
180 K | 102.68
181.02 K | 103.1
183.21 K | 103.93
185.4 K | 104.51
187.59 K | 105.09
189.78 K | 105.59
190 K | 105.76
191.97 K | 106.18
194.89 K | 106.84
196.33 K | 107.26
198.51 K | 107.92
200 K | 108.59
200.68 K | 108.67
202.82 K | 109.34
204.99 K | 109.92
207.16 K | 110.5
209.32 K | 111.16
210 K | 111.25
211.49 K | 111.66
213.66 K | 112.25
215.82 K | 112.83
217.98 K | 113.49
220 K | 113.83
220.14 K | 114.07
222.3 K | 114.66
224.46 K | 115.07
226.62 K | 115.82
228.77 K | 116.15
230 K | 116.49
230.93 K | 116.65
233.08 K | 117.32
235.23 K | 117.73
237.35 K | 118.4
239.5 K | 118.98
240 K | 119.23
241.65 K | 119.56
243.79 K | 120.23
245.94 K | 120.81
248.09 K | 121.39
250 K | 121.97
250.23 K | 121.97
252.37 K | 122.72
254.5 K | 123.3
256.64 K | 123.8
258.77 K | 124.3
260 K | 124.72
260.91 K | 124.88
263.04 K | 125.38
265.17 K | 126.05
267.3 K | 126.71
269.42 K | 127.29
270 K | 127.29
271.51 K | 127.71
273.15 K | 128.04
273.63 K | 128.13
276.36 K | 128.79
278.4 K | 129.21
280 K | 129.62
280.51 K | 129.79
282.62 K | 130.29
284.72 K | 130.62
286.82 K | 131.12
288.92 K | 131.62
290 K | 131.78
291.02 K | 132.2
293.09 K | 132.62
295.18 K | 133.03
297.25 K | 133.53
298.15 K | 133.7
299.32 K | 134.03
300 K | 134.11
301 K | 134.69
301.38 K | 134.69
302.98 K | 135.36
303.43 K | 135.36
